Results: patent publication US20140378474A1, “5-membered heteroarylcarboxamide derivatives as plasma kallikrein inhibitors” (NOVARTIS AG, priority 2012, published 2014)
pIC50: −log10 of the molar value. Structures can show the parent of a compound that is named as a salt.

Each compound was assayed against T1, Human plasma kallikrein (Homo sapiens, UniProt P03952) (assay: In vitro inhibition of plasma kallikrein (fluorogenic substrate DPro-Phe-Arg-(Rh110)-γGlu-OH)). Settings: human plasma kallikrein nominally 12 pM, substrate 0.5 μM, 1 hour pre-incubation at room temperature, read after 1 hour (t=60 min).
T1 construct: purchased Kordia (Leiden, Netherlands) batch HPKA 1303
T1 sequence (P03952 391-638 limits assumed): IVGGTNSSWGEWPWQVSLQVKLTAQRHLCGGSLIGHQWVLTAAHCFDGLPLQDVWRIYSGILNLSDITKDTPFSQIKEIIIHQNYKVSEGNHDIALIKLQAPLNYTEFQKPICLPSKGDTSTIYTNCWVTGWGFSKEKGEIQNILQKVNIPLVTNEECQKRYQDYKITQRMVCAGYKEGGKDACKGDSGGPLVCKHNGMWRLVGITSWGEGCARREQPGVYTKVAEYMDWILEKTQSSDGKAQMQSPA
T1 sequence (P03952 20-390 partner limits assumed): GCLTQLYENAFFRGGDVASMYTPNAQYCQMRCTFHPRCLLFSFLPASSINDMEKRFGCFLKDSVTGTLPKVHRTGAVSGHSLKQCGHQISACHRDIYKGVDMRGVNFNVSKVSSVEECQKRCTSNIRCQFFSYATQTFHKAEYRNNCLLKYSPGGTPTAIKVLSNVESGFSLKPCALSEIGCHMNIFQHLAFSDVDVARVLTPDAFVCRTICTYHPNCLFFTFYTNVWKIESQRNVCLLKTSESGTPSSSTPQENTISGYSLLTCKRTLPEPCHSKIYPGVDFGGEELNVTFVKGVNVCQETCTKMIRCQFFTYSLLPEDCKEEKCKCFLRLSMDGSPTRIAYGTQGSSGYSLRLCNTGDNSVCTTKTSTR
Assay type: biochemical
Procedure: In Vitro Inhibition of Plasma Kallikrein
The fluorogenic substrate DPro-Phe-Arg-(Rh110)-γGlu-OH (where DPro is the amino acid d-proline, Rh110 is the fluorophore rhodamine 110 and γGlu is a […] linked to Rh110 via the gamma-carbonyl function; from Biosyntan, Berlin, Germany), being based on the chromogenic substrate described in Gallimore et al (Thromb Res 25, 293-298, 1982), was dissolved in DMSO at 5 mM and stored at −80° C. All other chemicals were of analytical grade.
Human plasma kallikrein was purchased from Kordia (Leiden, Netherlands, batch HPKA 1303) in lyophilized form.
The protein solution was reconstituted from the lyophilisate by addition of deinonized water. The resulting stock solution comprised the protein at a concentration of 0.17 mg/ml in 4 mM sodium acetate/HCl and 150 mM NaCl at pH 5.3. The stock solution was stored in aliquots at −80° C. Enzymatic reactions were conducted in ‘assay buffer’, comprising 50 mM Hepes/NaOH at pH 7.8, 150 mM NaCl, 1 mM EDTA and 0.05% (w/v) CHAPS.
Both, enzyme and substrate were diluted in assay buffer.
All protein and peptide containing solutions were handled in siliconized tubes (Life Systems Design, Merenschwand, Switzerland). The compound solutions as well as the enzyme and the substrate solutions were transferred to 384-well plates (black Cliniplate; cat. no. 95040020 Labsystems Oy, Finland) by means of a CyBi-Well 96-channel pipettor (CyBio AG, Jena, Germany). Plate measurements were conducted by the means of a Safire2 reader (TECAN, Maennedorf, Switzerland). The Safire2 is a monochomator-based instrument and wavelengths of 485 nm and 535 nm were taken for fluorescence excitation and emission acquisition, respectively. The bandwidths were set to 10 nm in both the excitation and the emission path. The fluorescence in each well was excited by three flashes per measurement.
For the determination of IC50 values, the assays were performed at room temperature in 384-well plates with a total assay volume of 25.25 μl per well.
The test compound was dissolved in 90% (v/v) DMSO/water. For the assays, […] of the 90% (v/v) DMSO/water solution or compound solution were added per well, followed by the addition of 12.5 μl protease solution (protease in assay buffer). The final assay concentration of the human plasma kallikrein was nominally 12 pM, the 11 compound concentrations in the dilution series were in the range form 1 nM to 100 μM. After 1 hour of pre-incubation at room temperature, the reactions were started by the addition of 12.5 μl substrate solution (in assay buffer, final assay concentration was 0.5 μM). After the addition of the substrate solution, the final DMSO concentration in the assay was 0.9% (v/v). The effect of the compound on the enzymatic activity was obtained from the linear part of the progress curves and determined after 1 hour (t=60 min). The IC50 value was calculated from the plot of percentage of inhibition vs. inhibitor concentration by a logistics fit according to the following equation:
where y is the %-inhibition at the inhibitor concentration, x. A1 is the lowest inhibition value, i.e. 0%, and A2 the maximum inhibition value, i.e. 100%. The exponent, p, is the Hill coefficient. The curve fitting was conducted with the non-linear regression routine of the analysis software Origin 7.5SR6 (Origin Lab Corporation).

Row | SMILES | pIC50
1 | Cc1ccc2cc(Cn3cc(C(=O)NCc4c(C)ccnc4C)nn3)ccc2n1 [Example 1, N-((2,4-dimethylpyridin-3-yl)methyl)-1-((2-methylquinolin-6-yl)methyl)-1H-1,2,3-triazole-4-carboxamide] | 4.99
2 | COc1ccnc(C)c1CNC(=O)c1cn(Cc2ccc3nc(C)ccc3c2)nn1 [Example 2, N-((4-methoxy-2-methylpyridin-3-yl)methyl)-1-((2-methylquinolin-6-yl)methyl)-1H-1,2,3-triazole-4-carboxamide] | 5.44
3 | Cc1ccc2cc(Cn3cc(C(=O)NCc4c(C)cc(O)nc4C)nn3)ccc2n1 [Example 3, N-((6-hydroxy-2,4-dimethylpyridin-3-yl)methyl)-1-((2-methylquinolin-6-yl)methyl)-1H-1,2,3-triazole-4-carboxamide] | 6.24
4 | Cc1ccc2cc(Cn3cc(C(=O)NCc4c(C)cnc(O)c4C)nn3)ccc2n1 [Example 4, N-((2-hydroxy-3,5-dimethylpyridin-4-yl)methyl)-1-((2-methylquinolin-6-yl)methyl)-1H-1,2,3-triazole-4-carboxamide] | 5.62
5 | Cc1cnc2[nH]cc(CNC(=O)c3cn(Cc4ccc5nc(C)ccc5c4)nn3)c2c1 [Example 5, N-((5-methyl-1H-pyrrolo[2,3-b]pyridin-3-yl)methyl)-1-((2-methylquinolin-6-yl)methyl)-1H-1,2,3-triazole-4-carboxamide] | 5.53
6 | Cc1ccc2cc(Cn3cc(C(=O)NCc4c(C)ccnc4C(F)(F)F)nn3)ccc2n1 [Example 6, N-((4-methyl-2-(trifluoromethyl)pyridin-3-yl)methyl)-1-((2-methylquinolin-6-yl)methyl)-1H-1,2,3-triazole-4-carboxamide] | 5.55
7 | O=C(NCc1cccc(Cl)c1)c1cnn(Cc2ccc(Cn3cccn3)cc2)c1 [Example 7, 1-(4-((1H-pyrazol-1-yl)methyl)benzyl)-N-(3-chlorobenzyl)-1H-pyrazole-4-carboxamide] | 5.88
8 | C[C@@H](NC(=O)c1cnn(Cc2ccc(Cn3cccn3)cc2)c1)c1cccc(Cl)c1 [Example 8, (R)-1-(4-((1H-pyrazol-1-yl)methyl)benzyl)-N-(1-(3-chlorophenyl)ethyl)-1H-pyrazole-4-carboxamide] | 5.79
9 | N=C(N)c1ccc(CNC(=O)c2cnn(Cc3ccc4ccccc4c3)c2)cc1 [Example 9, N-(4-carbamimidoylbenzyl)-1-(naphthalen-2-ylmethyl)-1H-pyrazole-4-carboxamide hydrochloride] | 9.53
10 | N=C(N)c1ccc(CNC(=O)c2cnn(Cc3ccc(Cn4cccn4)cc3)c2)cc1 [Example 10, 1-(4-((1H-pyrazol-1-yl)methyl)benzyl)-N-(4-carbamimidoylbenzyl)-1H-pyrazole-4-carboxamide hydrochloride] | 9.06
11 | COc1ccc(Cn2cc(C(=O)NCc3n[nH]c4ccc(Cl)cc34)cn2)cc1 [Example 11, N-((5-chloro-1H-indazol-3-yl)methyl)-1-(4-methoxybenzyl)-1H-pyrazole-4-carboxamide] | 6.45
12 | Cc1ccc2cc(Cn3cc(C(=O)NCc4c[nH]c5ccc(Cl)cc45)cn3)ccc2n1 [Example 12, N-((5-chloro-1H-indol-3-yl)methyl)-1-((2-methylquinolin-6-yl)methyl)-1H-pyrazole-4-carboxamide] | 7.61
13 | Cc1ccc2cc(Cn3cc(C(=O)NCc4ncc(N)nc4C)nn3)ccc2n1 [Example 13, N-((5-amino-3-methylpyrazin-2-yl)methyl)-1-((2-methylquinolin-6-yl)methyl)-1H-1,2,3-triazole-4-carboxamide] | 6.11
14 | COc1ccc(Cl)c(CNC(=O)c2cn(Cc3ccc4nc(C)ccc4c3)nn2)c1F [Example 14, N-(6-chloro-2-fluoro-3-methoxybenzyl)-1-((2-methylquinolin-6-yl)methyl)-1H-1,2,3-triazole-4-carboxamide] | 7.38
15 | O=C(NCc1n[nH]c2ccc(Cl)cc12)c1cnn(Cc2ccc(Cn3ccccc3=O)cc2)c1 [Example 15, N-((5-chloro-1H-indazol-3-yl)methyl)-1-(4-((2-oxopyridin-1(2H)-yl)methyl)benzyl)-1H-pyrazole-4-carboxamide] | 9.97
16 | O=C(NCc1c[nH]c2ccc(Cl)cc12)c1cnn(Cc2ccc(Cn3ccccc3=O)cc2)c1 [Example 16, N-((5-chloro-1H-indol-3-yl)methyl)-1-(4-((2-oxopyridin-1(2H)-yl)methyl)benzyl)-1H-pyrazole-4-carboxamide] | 9.48
17 | O=C(NCc1n[nH]c2ccc(Cl)cc12)c1cnn(Cc2ccc(Cn3cccn3)cc2)c1 [Example 17, 1-(4-((1H-pyrazol-1-yl)methyl)benzyl)-N-((5-chloro-1H-indazol-3-yl)methyl)-1H-pyrazole-4-carboxamide] | 9.26
18 | O=C(NCc1c[nH]c2ccc(Cl)cc12)c1cnn(Cc2ccc(Cn3cccn3)cc2)c1 [Example 18, 1-(4-((1H-pyrazol-1-yl)methyl)benzyl)-N-((5-chloro-1H-indol-3-yl)methyl)-1H-pyrazole-4-carboxamide] | 8.36
19 | O=C(NCc1n[nH]c2ccc(Cl)cc12)c1cnn(Cc2ccc(CN3CCOC3=O)cc2)c1 [Example 19, N-((5-chloro-1H-indazol-3-yl)methyl)-1-(4-((2-oxooxazolidin-3-yl)methyl)benzyl)-1H-pyrazole-4-carboxamide] | 8.04
20 | Cc1ccc2cc(Cn3cc(C(=O)NCc4n[nH]c5ccc(Cl)cc45)cn3)ccc2n1 [Example 20, N-((5-chloro-1H-indazol-3-yl)methyl)-1-((2-methylquinolin-6-yl)methyl)-1H-pyrazole-4-carboxamide] | 7.96
21 | O=C(NCc1n[nH]c2ccc(Cl)cc12)c1cnn(Cc2ccc(S(=O)(=O)n3cccc3)cc2)c1 [Example 21, 1-(4-((1H-pyrrol-1-yl)sulfonyl)benzyl)-N-((5-chloro-1H-indazol-3-yl)methyl)-1H-pyrazole-4-carboxamide] | 7.33
22 | O=C(NCc1c[nH]c2ccc(Cl)cc12)c1cnn(Cc2ccc(CN3CCOC3=O)cc2)c1 [Example 22, N-((5-chloro-1H-indol-3-yl)methyl)-1-(4-((2-oxooxazolidin-3-yl)methyl)benzyl)-1H-pyrazole-4-carboxamide] | 7.22
23 | O=C(NCc1c[nH]c2ccc(Cl)cc12)c1cnn(Cc2ccc(S(=O)(=O)n3cccc3)cc2)c1 [Example 23, 1-(4-((1H-pyrrol-1-yl)sulfonyl)benzyl)-N-((5-chloro-1H-indol-3-yl)methyl)-1H-pyrazole-4-carboxamide] | 6.87
24 | COc1ccc(Cn2cc(C(=O)NCc3n[nH]c4ccc(Cl)cc34)cn2)cc1OC [Example 24, N-((5-chloro-1H-indazol-3-yl)methyl)-1-(3,4-dimethoxybenzyl)-1H-pyrazole-4-carboxamide] | 6.55
25 | COc1cc(Cn2cc(C(=O)NCc3n[nH]c4ccc(Cl)cc34)cn2)cc(OC)c1 [Example 25, N-((5-chloro-1H-indazol-3-yl)methyl)-1-(3,5-dimethoxybenzyl)-1H-pyrazole-4-carboxamide] | 6.51
26 | COc1cccc(Cn2cc(C(=O)NCc3n[nH]c4ccc(Cl)cc34)cn2)c1 [Example 26, N-((5-chloro-1H-indazol-3-yl)methyl)-1-(3-methoxybenzyl)-1H-pyrazole-4-carboxamide] | 6.37
27 | O=C(NCc1cccc(Cl)c1F)c1cnn(Cc2ccc(Cn3cccn3)cc2)c1 [Example 27, 1-(4-((1H-pyrazol-1-yl)methyl)benzyl)-N-(3-chloro-2-fluorobenzyl)-1H-pyrazole-4-carboxamide] | 6.07
28 | C[C@@H](NC(=O)c1cnn(Cc2ccc(Cn3cccn3)cc2)c1)c1cccc(Cl)c1F [Example 28, (R)-1-(4-((1H-pyrazol-1-yl)methyl)benzyl)-N-(1-(3-chloro-2-fluorophenyl)ethyl)-1H-pyrazole-4-carboxamide] | 4.57
